Literature values in patent publication US20120322767A1, “FORMULATIONS OF BISPHOSPHONATES AND VITAMIN D SUIUTABLE FOR INTERMITTENT INTRAMUSCULAR AND SUBCUTANEOUS ADMINISTRATION” (priority 2009, published 2012).

What was measured:
[1] = humans, ratio of urinary or plasma concentrations (AUC) after intravenous and oral administration
[2] = man, oral, 100,000 IU, maintained for two months

| Oral bioavailability [1] | Molecule | Serum levels of calcidiol [2] |
| --- | --- | --- |
| ~0.3% | NCCC(O)(P(=O)(O)O)P(=O)(O)O [pamidronate] | – |
| 1-2% | O=P(O)(O)C(Cl)(Cl)P(=O)(O)O [clodronate] | – |
| – | vitamin D | > 80 nM |
| 3-7% | CC(O)(P(=O)(O)O)P(=O)(O)O [etidronate] | – |
